Molecules are shown by their SMILES.

Common to all, as to assay type: binding
Experiment [1] addresses T1, CCR4 (Homo sapiens, UniProt P51679).
T1 construct: purchased Promega (in-house HiBiT-GPCR construct library, NanoBRET)
T1 sequence (P51679 1-360): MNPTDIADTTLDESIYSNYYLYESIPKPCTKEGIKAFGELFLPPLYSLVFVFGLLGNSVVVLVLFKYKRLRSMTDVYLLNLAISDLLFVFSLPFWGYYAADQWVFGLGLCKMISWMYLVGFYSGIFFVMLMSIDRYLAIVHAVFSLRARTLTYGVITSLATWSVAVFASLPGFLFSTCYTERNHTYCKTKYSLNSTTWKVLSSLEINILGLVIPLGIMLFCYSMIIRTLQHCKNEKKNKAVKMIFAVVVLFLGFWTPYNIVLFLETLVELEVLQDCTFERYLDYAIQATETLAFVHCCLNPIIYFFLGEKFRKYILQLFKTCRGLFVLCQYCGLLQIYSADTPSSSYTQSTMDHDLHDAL
Description: NanoBRET screen HiBiT-CCR4 in HEK293. How it is done:
(§1) Each tracer candidate was screened across the entire library of HiBiT-GPCR constructs using NanoBRET as the detection modality. As depicted in Figure 4A, the specificity of interactions was evaluated through decrease in BRET due to competitive displacement of a bound tracer by excess parental compound. Each tracer was analyzed for binding to each HiBiT-GPCR fusion in the absence and in the presence of competing parental compound. Briefly, HEK293 cells were transfected with HiBiT-GPCR constructs diluted into promoterless DNA to reduce expression and maximize translocation to the cell surface. Each tracer candidate was then screened at concentrations of 1 μM and 0.1 μM across cells expressing these fusions. Cells were treated for 1.5 h with tracer either alone or in the presence of 20 μM competing parental compound (i.e., control). BRET was measured upon addition of purified LgBiT and subsequent complementation with HiBiT genetically fused to a GPCR. The specificity of interactions was assessed through a decrease in BRET signal due to competitive displacement of the bound tracer. To further gauge the robustness of these interactions, the fold response over the control (i.e., BRETtracer/BRETcontrol) was calculated. We chose a 1.5-fold response, which translates to ≥7-fold signal over noise as the minimal threshold required to score an interaction as positive. […]. Below we highlight the screening results obtained for our exemplary fluorescent tracers based on Clozapine, Amitriptyline and AZD1283.
(§2) HiBiT-GPCR DNA constructs were diluted in 10 mM Tris pH 8 to a final concentration of 0.01 μg/μL, arrayed in 96-well plates and stored at −20 °C. For transfection, HEK293 cells were suspended in Opti-MEM (without phenol red) supplemented with 2% fetal bovine serum (Seradigm) and 100 units/mL penicillin–streptomycin (Gibco) at a final concentration of 220,000 cells/mL and dispensed into white 96-well plates at 90 μL/well. Subsequent transfections and screens were carried using an Agilent Bravo Automated Liquid Handling Platform. First, the 96-well HiBiT DNA arrays were diluted 25-fold in Opti-MEM (without serum or phenol red) to a final concentration of 0.0004 μg/μL and 20 μL of the diluted DNAs were transferred into new 96-well plates. Next, promoterless carrier DNA (1 μg/μL) was diluted 25-fold (0.04 μg/μL) and then dispensed into the diluted arrays at 20 μL/well. Following brief mixing, Viafect transfection reagent (Promega) diluted 16-fold into Opti-MEM was dispensed into the plates at 40 μL/well. After mixing by pipetting, plates were incubated for 10 min on the pipetting station deck. The DNA-transfection reagent complexes were then added to plates containing cells. To facilitate the screen, 10 μL of DNA-transfection reagent complexes were added in duplicates to the top 4 and bottom 4 rows, resulting in two identical 48-well arrays per plate. Plates with transfected cells were incubated for 18–20 h at 37 °C/5% CO2. A screen of each tracer across the entire library using two different concentrations requires duplicate plates of transfected cells. Depending on the number of tracers being screened, transfections can be scaled up using the same ratios. The next day, for each tracer, four 20× screening solutions in tracer dilution buffer (Promega) were prepared: two duplicates at final concentration of 20 μM and two duplicates at a final concentration of 2 μM. A competing unmodified compound was added to one of each duplicate at a final concentration of 400 μM. The four resulting solutions were diluted 4-fold in Opti-MEM without serum or phenol red to generate 5× solutions (5 µM and 0.5 µM tracer +/− 100 μM competing compound). To screen the library, a BioTek MultiFlo FX liquid dispenser was used to dispense 22.5 µL of tracer solution to the top 4 rows and 22.5 µL tracer + competing compound solution to the 4 bottom rows. Plates were briefly mixed on an orbital shaker and incubated for 1.5 h at room temperature. […]
For orientation: In BRET a luciferase serves as donor, and the signal depends on an acceptor being close.

The target of experiment [2] is T2, EDNRA (Homo sapiens, UniProt P25101).
T2 construct: purchased Promega (in-house HiBiT-GPCR construct library, NanoBRET)
T2 sequence (P25101 21-427): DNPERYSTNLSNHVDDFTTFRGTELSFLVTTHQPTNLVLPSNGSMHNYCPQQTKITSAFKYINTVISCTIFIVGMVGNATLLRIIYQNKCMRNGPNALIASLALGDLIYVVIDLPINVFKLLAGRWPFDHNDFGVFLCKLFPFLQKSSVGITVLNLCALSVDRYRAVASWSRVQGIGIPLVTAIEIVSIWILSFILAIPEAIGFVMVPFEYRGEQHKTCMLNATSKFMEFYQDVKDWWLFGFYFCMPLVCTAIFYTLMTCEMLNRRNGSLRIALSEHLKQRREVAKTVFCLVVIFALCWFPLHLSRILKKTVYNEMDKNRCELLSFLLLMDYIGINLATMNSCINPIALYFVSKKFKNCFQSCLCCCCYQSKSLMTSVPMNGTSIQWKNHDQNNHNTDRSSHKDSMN
The experiment in a line: NanoBRET screen HiBiT-EDNRA in HEK293. As for the experimental part: as §1, §2

Experiment [3] deals with T3, FZD1 (Homo sapiens, UniProt Q9UP38).
T3 construct: purchased Promega (in-house HiBiT-GPCR construct library, NanoBRET)
T3 sequence (Q9UP38 70-647): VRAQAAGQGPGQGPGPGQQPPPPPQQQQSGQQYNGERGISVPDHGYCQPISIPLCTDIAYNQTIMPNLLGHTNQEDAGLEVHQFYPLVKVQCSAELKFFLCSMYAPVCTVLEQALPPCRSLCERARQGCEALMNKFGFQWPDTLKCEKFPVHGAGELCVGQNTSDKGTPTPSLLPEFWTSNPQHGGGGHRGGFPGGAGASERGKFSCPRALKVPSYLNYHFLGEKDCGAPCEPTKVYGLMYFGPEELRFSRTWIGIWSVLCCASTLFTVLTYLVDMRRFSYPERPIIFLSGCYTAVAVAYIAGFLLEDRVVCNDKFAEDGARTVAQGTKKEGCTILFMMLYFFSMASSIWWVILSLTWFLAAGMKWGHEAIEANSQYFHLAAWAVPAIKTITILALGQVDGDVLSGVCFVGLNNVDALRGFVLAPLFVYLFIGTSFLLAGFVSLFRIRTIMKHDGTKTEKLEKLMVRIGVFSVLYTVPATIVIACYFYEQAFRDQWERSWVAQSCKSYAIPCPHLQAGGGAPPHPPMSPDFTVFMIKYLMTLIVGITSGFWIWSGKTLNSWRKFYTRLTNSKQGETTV
Description: NanoBRET screen HiBiT-FZD1 in HEK293. How it is done: as §1, §2

Experiment [4] concerns the target T4, VIPR2 (Homo sapiens, UniProt P41587).
T4 construct: purchased Promega (in-house HiBiT-GPCR construct library, NanoBRET)
T4 sequence (P41587 24-438): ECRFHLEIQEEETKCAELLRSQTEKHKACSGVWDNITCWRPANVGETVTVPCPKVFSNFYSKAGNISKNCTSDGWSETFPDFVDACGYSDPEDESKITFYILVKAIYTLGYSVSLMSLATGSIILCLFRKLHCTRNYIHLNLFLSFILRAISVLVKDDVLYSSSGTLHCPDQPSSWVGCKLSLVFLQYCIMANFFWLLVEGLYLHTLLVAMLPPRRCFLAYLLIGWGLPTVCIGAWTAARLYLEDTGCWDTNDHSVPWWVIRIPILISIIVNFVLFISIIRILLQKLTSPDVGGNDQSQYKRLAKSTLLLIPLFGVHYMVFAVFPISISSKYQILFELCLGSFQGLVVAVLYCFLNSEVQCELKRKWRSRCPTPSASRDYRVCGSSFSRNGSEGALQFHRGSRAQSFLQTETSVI
Description: NanoBRET screen HiBiT-VIPR2 in HEK293. How it is done: as §1, §2

Experiment [5] has as its target T5, SSTR3 (Homo sapiens, UniProt P32745).
T5 construct: purchased Promega (in-house HiBiT-GPCR construct library, NanoBRET)
The experiment in a line: NanoBRET screen HiBiT-SSTR3 in HEK293. How it is done:
as §1, §2

T5 sequence (P32745 whole entry): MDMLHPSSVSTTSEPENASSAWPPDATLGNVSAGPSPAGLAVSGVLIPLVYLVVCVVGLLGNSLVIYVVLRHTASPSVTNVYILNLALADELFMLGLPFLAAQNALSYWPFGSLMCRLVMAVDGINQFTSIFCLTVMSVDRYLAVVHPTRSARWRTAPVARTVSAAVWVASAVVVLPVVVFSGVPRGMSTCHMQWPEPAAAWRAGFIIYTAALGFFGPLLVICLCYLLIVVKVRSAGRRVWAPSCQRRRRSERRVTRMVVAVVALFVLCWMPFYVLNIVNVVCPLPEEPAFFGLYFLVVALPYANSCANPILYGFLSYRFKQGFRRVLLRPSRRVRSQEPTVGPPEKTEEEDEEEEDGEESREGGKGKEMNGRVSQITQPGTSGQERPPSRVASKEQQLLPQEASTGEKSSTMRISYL

For `COc1ccc2c(n1)c(CCNC(C)=O)cn2CCNC(=O)CCc1ccc2n1[B-](F)(F)[N+]1=C(c3ccc[nH]3)C=CC1=C2` [Azamelatonin-1-NB590], the “NanoBRET Fold Response” value turned out to be 0.91 in experiment [1] (0.1μM tracer); 0.81 in experiment [1] (1μM tracer); 0.91 in experiment [2] (0.1μM tracer); 0.91 in experiment [2] (1μM tracer); 1.10 in experiment [3] (0.1μM tracer); 1.10 in experiment [3] (1μM tracer). The “NanoBRET Fold Response” value in experiment [4] (0.1μM tracer) is listed as 0.99; in experiment [4] (1μM tracer), 0.99; in experiment [5] (0.1μM tracer) it was 1.03; in experiment [5] (1μM tracer), 1.08.

For `CC(C)N(CC[C@H](c1ccccc1)c1cc(CCNC(=O)c2ccc(CNC(=O)CCc3ccc4n3[B-](F)(F)[N+]3=C(c5ccc[nH]5)C=CC3=C4)cc2)ccc1O)C(C)C` [Tolterodine-BZ-NB590], the “NanoBRET Fold Response” value in experiment [1] (CCR4, tracer 0.1μM) stood at 0.95; in experiment [1] (CCR4, tracer 1μM), 0.86; in experiment [2] (EDNRA, tracer 0.1μM) it was 1.05; in experiment [2] (EDNRA, tracer 1μM) it was 1.11; in experiment [3] (FZD1, tracer 0.1μM), 1.04; in experiment [3] (FZD1, tracer 1μM), 0.95. Further, the “NanoBRET Fold Response” value is on record as 0.98 in experiment [4] (VIPR2, tracer 0.1μM); 1.07 in experiment [4] (VIPR2, tracer 1μM); 1.01 in experiment [5] (SSTR3, tracer 0.1μM); 1.04 in experiment [5] (SSTR3, tracer 1μM).

For `O=C(CCc1ccc2n1[B-](F)(F)[N+]1=C(c3ccc[nH]3)C=CC1=C2)NCCOCCOCCNC(=O)OCCOCCN1CCN(C2=Nc3ccccc3Sc3ccccc32)CC1` [Quetiapine-a-2-NB590], the “NanoBRET Fold Response” value in experiment [1] (CCR4, tracer 0.1μM) is listed as 1.02; in experiment [1] (CCR4, tracer 1μM), 0.94; in experiment [2] (EDNRA, tracer 0.1μM) it was 1.03; in experiment [2] (EDNRA, tracer 1μM), 1.04; in experiment [3] (FZD1, tracer 0.1μM), 1.14; in experiment [3] (FZD1, tracer 1μM), 0.96. Further, the “NanoBRET Fold Response” value in experiment [4] (VIPR2, tracer 0.1μM) turned out to be 0.96; in experiment [4] (VIPR2, tracer 1μM), 0.96; in experiment [5] (SSTR3, tracer 0.1μM), 0.96; in experiment [5] (SSTR3, tracer 1μM), 0.74.

For the compound `Cc1cc2c(s1)Nc1ccccc1N=C2N1CCN(CCCNC(=O)CCOCCOCCOCCOCCNC(=O)CCc2ccc3n2[B-](F)(F)[N+]2=C(c4ccc[nH]4)C=CC2=C3)CC1` [Olanzapine-a-2-NB590], the “NanoBRET Fold Response” value is given as 1.01 in experiment [1] (CCR4, tracer 0.1μM); 0.92 in experiment [1] (CCR4, tracer 1μM); 1.02 in experiment [2] (EDNRA, tracer 0.1μM); 1.10 in experiment [2] (EDNRA, tracer 1μM); 0.95 in experiment [3] (FZD1, tracer 0.1μM); 1.04 in experiment [3] (FZD1, tracer 1μM). Further, the “NanoBRET Fold Response” value in experiment [4] (VIPR2, tracer 0.1μM) was 1.00; in experiment [4] (VIPR2, tracer 1μM) it was 1.05; in experiment [5] (SSTR3, tracer 0.1μM), 0.99; in experiment [5] (SSTR3, tracer 1μM), 1.04.

Turning to `O=C(CCc1ccc2n1[B-](F)(F)[N+]1=C(c3ccc[nH]3)C=CC1=C2)NCc1ccc(C(=O)NCCOCCOCCNCC(O)COc2cccc3ccccc23)cc1` (stereo not shown) [Propranolol-3-NB590], the “NanoBRET Fold Response” value stood at 1.11 in experiment [1] (CCR4, 0.1μM); 1.03 in experiment [1] (CCR4, 1μM); 0.97 in experiment [2] (EDNRA, 0.1μM); 1.03 in experiment [2] (EDNRA, 1μM); 0.97 in experiment [3] (FZD1, 0.1μM); 0.98 in experiment [3] (FZD1, 1μM). Further, the “NanoBRET Fold Response” value amounted to 0.95 in experiment [4] (VIPR2, 0.1μM); 1.03 in experiment [4] (VIPR2, 1μM); 0.99 in experiment [5] (SSTR3, 0.1μM); 1.01 in experiment [5] (SSTR3, 1μM).

For `CN1CCN(C2=Nc3cc(Cl)ccc3N(CC(=O)NCCOCCOCCOCCOCCNC(=O)CCc3ccc4n3[B-](F)(F)[N+]3=C(c5ccc[nH]5)C=CC3=C4)c3ccccc32)CC1` [Clozapine-c-2-NB590], the “NanoBRET Fold Response” value in experiment [1] (CCR4, 0.1μM tracer) is recorded as 0.97; in experiment [1] (CCR4, 1μM tracer), 0.72; in experiment [2] (EDNRA, 0.1μM tracer) it was 0.99; in experiment [2] (EDNRA, 1μM tracer), 0.87; in experiment [3] (FZD1, 0.1μM tracer), 1.02; in experiment [3] (FZD1, 1μM tracer) it was 1.06. For the same compound, the “NanoBRET Fold Response” value is on record as 0.97 in experiment [4] (VIPR2, 0.1μM tracer); 0.86 in experiment [4] (VIPR2, 1μM tracer); 0.95 in experiment [5] (SSTR3, 0.1μM tracer); 1.02 in experiment [5] (SSTR3, 1μM tracer).

With `CN(CCC=C1c2ccccc2CCc2ccccc21)C(=O)CCOCCOCCOCCOCCNC(=O)CCc1ccc2n1[B-](F)(F)[N+]1=C(c3ccc[nH]3)C=CC1=C2` [Amitriptyline-e-2-NB590], the “NanoBRET Fold Response” value came out at 0.97 in experiment [1] (tracer at 1μM), 1.05 in experiment [2] (tracer at 1μM), 0.98 in experiment [3] (tracer at 1μM) and 1.06 in experiment [4] (tracer at 1μM).

Values taken from paper PMC8151276, “An Integrated Approach toward NanoBRET Tracers for Analysis of GPCR Ligand Engagement” (Molecules, 2021).
